Assay results published in patent US20120157548A1, “USE OF CYCLOALIPHATIC DIOLS AS BIOCIDES” (BASF SE, priority 2009, published 2012).

Assays:
[1] = system: P. aeruginosa NCIMB 10421; assay: Biocide test, MIC in tryptone soy broth; format: cell-based; conditions: 30° C., 48 hours; for MIC value, from: lower limit of MIC range; for MIC value, to: upper limit of MIC range
Method: (§1) For this, in each case a 40 percent strength by weight solution of a diol in propylene glycol was prepared at 60° C.
(§2) This solution was diluted with a double-strength soy solution (double-strength tryptone soy broth) as nutrient medium in the volume ratio 1:1. Further dilution with soy solution produced solutions with the following concentrations:
(§3) The following microorganisms were used to test the biocidal effect against various bacteria and fungi:
P. aeruginosa NCIMB 10421
(§4) Pure soy solution was used as negative control. The positive control used was a solution of 5 ml of soy solution which has been treated with 0.1 ml of the respective microorganism. The test solutions consisted of 5 ml of the above-described soy solutions of the diols in the particular concentration which have been mixed with 0.1 ml of the respective microorganism.
(§5) The samples and controls were incubated in the case of the bacteria at 30° C. for 48 hours, and in the case of fungi over 5 days at 25° C.
(§6) In each case, the MIC (Minimum Inhibitory Concentration) value was determined. This value indicates the minimum concentration above which the growth of the microorganisms was visibly hindered compared to the corresponding sample without addition of the diol.
(§7) The lower the MIC value, the greater the biocidal effect.
(§8) For example, this was evident from the occurrence of clouding or visible growth of the microorganism.
(§9) The MIC value stated is a range between the next higher concentration of a positive test and the same and/or lower concentration of a first negative test.

[2] = system: C. albicans NCPF 3179; assay: Biocide test, MIC in tryptone soy broth; format: cell-based; conditions: 25° C., 5 days; for MIC value, from: lower limit of MIC range; for MIC value, to: upper limit of MIC range
Method: as §1, §2, §3, §4, §5, §6, §7, §8, §9

[3] = system: E. coli NCIMB 8545; assay: Biocide test, MIC in tryptone soy broth; format: cell-based; conditions: 30° C., 48 hours; for MIC value, from: lower limit of MIC range; for MIC value, to: upper limit of MIC range
Method: as §1, §2, §3, §4, §5, §6, §7, §8, §9

[4] = system: A. niger IMI 149007; assay: Biocide test, MIC in tryptone soy broth; format: cell-based; conditions: 25° C., 5 days; for MIC value, from: lower limit of MIC range; for MIC value, to: upper limit of MIC range
Method: as §1, §2, §3, §4, §5, §6, §7, §8, §9

[5] = system: P. vulgaris NCIMB 4175; assay: Biocide test, MIC in tryptone soy broth; format: cell-based; conditions: 30° C., 48 hours; for MIC value, from: lower limit of MIC range; for MIC value, to: upper limit of MIC range
Method: as §1, §2, §3, §4, §5, §6, §7, §8, §9

[6] = system: S. aureus NCIMB 9578; assay: Biocide test, MIC in tryptone soy broth; format: cell-based; conditions: 30° C., 48 hours; for MIC value, from: lower limit of MIC range; for MIC value, to: upper limit of MIC range
Method: as §1, §2, §3, §4, §5, §6, §7, §8, §9

[7] = system: series of tested microorganisms; assay: Biocide test, highest measured MIC from the series of tested microorganisms; format: cell-based; conditions: highest measured MIC of the six microorganisms; for Maximum MIC value, from: lower limit of range; for Maximum MIC value, to: upper limit of range
Method: as §3, §6, §9
In the last line of each of the tables below, a “maximum” value is listed. This value indicates the highest measured MIC value in each case from the series of tested microorganisms.

[8] = system: microorganisms; conditions: as stated for the comparison substances; cited from earlier work

Compound: Hydroxymethylcyclohexylpropan-1-ol isomers [CHA-diol]
- MIC value, from [1]: >50 000 ppm of diol
- MIC value, to [1]: ≦100 000 ppm of diol
- MIC value, from [2]: >6 250 ppm of diol
- MIC value, to [2]: ≦12 500 ppm of diol
- MIC value, from [3]: >3 125 ppm of diol
- MIC value, to [3]: ≦6 250 ppm of diol
- MIC value, from [4]: >200 000 ppm of diol
- MIC value, to [4]: ≦400 000 ppm of diol
- MIC value, from [5]: >3 125 ppm of diol
- MIC value, to [5]: ≦6 250 ppm of diol
- MIC value, from [6]: >6 250 ppm of diol
- MIC value, to [6]: ≦12 500 ppm of diol
- Maximum MIC value, from [7]: >200 000 ppm of diol
- Maximum MIC value, to [7]: ≦400 000 ppm of diol

Compound: CC(O)CO (centres unmarked) [Propylene Glycol]
- MIC value, from [1]: >100 000 ppm of diol
- MIC value, to [1]: ≦200 000 ppm of diol
- MIC value, from [2]: >200 000 ppm of diol
- MIC value, to [2]: ≦400 000 ppm of diol
- MIC value, from [3]: >200 000 ppm of diol
- MIC value, to [3]: ≦400 000 ppm of diol
- MIC value, from [4]: >200 000 ppm of diol
- MIC value, to [4]: ≦400 000 ppm of diol
- MIC value, from [5]: >100 000 ppm of diol
- MIC value, to [5]: ≦200 000 ppm of diol
- MIC value, from [6]: >200 000 ppm of diol
- MIC value, to [6]: ≦400 000 ppm of diol
- Maximum MIC value, from [7]: >200 000 ppm of diol
- Maximum MIC value, to [7]: ≦400 000 ppm of diol

Compound: Hydroxymethylbicyclo[2.2.1]hept-2-ylmethanol isomers [2,5-2,6-DMNB]
- MIC value, from [1]: >6 250 ppm of diol
- MIC value, to [1]: ≦12 500 ppm of diol
- MIC value, from [2]: >50 000 ppm of diol
- MIC value, to [2]: ≦100 000 ppm of diol
- MIC value, from [3]: >6 250 ppm of diol
- MIC value, to [3]: ≦12 500 ppm of diol
- MIC value, from [4]: >50 000 ppm of diol
- MIC value, to [4]: ≦100 000 ppm of diol
- MIC value, from [5]: >6 250 ppm of diol
- MIC value, to [5]: ≦12 500 ppm of diol
- MIC value, from [6]: >6 250 ppm of diol
- MIC value, to [6]: ≦12 500 ppm of diol
- Maximum MIC value, from [7]: >50 000 ppm of diol
- Maximum MIC value, to [7]: ≦100 000 ppm of diol

Compound: CC(O)CC(C)O (centres unmarked) [2,4-Pentanediol]
- MIC value, from [1]: >50 000 ppm of diol
- MIC value, to [1]: ≦100 000 ppm of diol
- MIC value, from [2]: >50 000 ppm of diol
- MIC value, to [2]: ≦100 000 ppm of diol
- MIC value, from [3]: >50 000 ppm of diol
- MIC value, to [3]: ≦100 000 ppm of diol
- MIC value, from [4]: >200 000 ppm of diol
- MIC value, to [4]: ≦400 000 ppm of diol
- MIC value, from [5]: >50 000 ppm of diol
- MIC value, to [5]: ≦100 000 ppm of diol
- MIC value, from [6]: >50 000 ppm of diol
- MIC value, to [6]: ≦100 000 ppm of diol
- Maximum MIC value, from [7]: >200 000 ppm of diol
- Maximum MIC value, to [7]: ≦400 000 ppm of diol
- biocidal effect [8]: low biocidal effect

Compound: Hydroxymethylbicyclo[2.2.1]hept-2-ylpropan-1-ol isomers [ENB-Diol]
- MIC value, from [1]: >50 000 ppm of diol
- MIC value, to [1]: ≦100 000 ppm of diol
- MIC value, from [2]: >12 500 ppm of diol
- MIC value, to [2]: ≦25 000 ppm of diol
- MIC value, from [3]: >3 125 ppm of diol
- MIC value, to [3]: ≦6 250 ppm of diol
- MIC value, from [4]: >12 500 ppm of diol
- MIC value, to [4]: ≦25 000 ppm of diol
- MIC value, from [5]: >3 125 ppm of diol
- MIC value, to [5]: ≦6 250 ppm of diol
- MIC value, from [6]: >3 125 ppm of diol
- MIC value, to [6]: ≦6 250 ppm of diol
- Maximum MIC value, from [7]: >50 000 ppm of diol
- Maximum MIC value, to [7]: ≦100 000 ppm of diol

Compound: CCCC(O)CO (centres unmarked) [1,2-Pentanediol]
- MIC value, from [1]: >12 500 ppm of diol
- MIC value, to [1]: ≦25 000 ppm of diol
- MIC value, from [2]: >25 000 ppm of diol
- MIC value, to [2]: ≦50 000 ppm of diol
- MIC value, from [3]: >25 000 ppm of diol
- MIC value, to [3]: ≦50 000 ppm of diol
- MIC value, from [4]: >12 500 ppm of diol
- MIC value, to [4]: ≦25 000 ppm of diol
- MIC value, from [5]: >25 000 ppm of diol
- MIC value, to [5]: ≦50 000 ppm of diol
- MIC value, from [6]: >25 000 ppm of diol
- MIC value, to [6]: ≦50 000 ppm of diol
- Maximum MIC value, from [7]: >25 000 ppm of diol
- Maximum MIC value, to [7]: ≦50 000 ppm of diol
- biocidal effect [8]: high biocidal effect
